Results: article PMC10165273, “Itch receptor MRGPRX4 interacts with the receptor activity–modifying proteins” (The Journal of Biological Chemistry, 2023)
Values joined by “and” are separate entries in the source; they are usually repeats but may differ in a detail not shown here. Identical values can stand only once. Like-named read-outs stand apart in the source and are kept apart here.

Biological target: T1, MRGPRX4 (Homo sapiens, UniProt Q96LA9)
T1 construct: expressed in transfected cells; host or cells: HEK293T
Assay: IP1 accumulation HTRF assay, MRGPRX4
Format: cell-based
Set-up: key to IP1 Basal / IP1 accumulation with YM (Figure 1c) / response to agonist, MRGPRX4 / IP1 accumulation: % IP1: unstimulated mock-transfected = 0%, fully stimulated MRGPRX4 = 100%
Settings: for activation at 100 µM / activation at 20 µM / activation at 4 µM / activation at 0.8 µM / activation at […] / activation at 0.032 µM: 2 h, read-out: IP1 accumulation (normalized); for activation at 100 µM: log [nateglinide] (M) -4; for activation at 20 µM: log [nateglinide] (M) -4.69897; for activation at 4 µM: log [nateglinide] (M) -5.39794; for activation at 0.8 µM: log [nateglinide] (M) -6.09691; for activation at […]: log [nateglinide] (M) -6.79588; for activation at 0.032 µM: log [nateglinide] (M) -7.49485; for normalized IP1 accumulation: HA-MRGX4-1D4

[1] = Dox 40 ng/mL, Supplementary Figure 5b
[2] = Dox 40 ng/mL, Supplementary Figure 5c
[3] = Dox 1100 ng/mL, Supplementary Figure 5a
[4] = Dox 1100 ng/mL, Supplementary Figure 5b
[5] = Dox 1100 ng/mL, Supplementary Figure 5c
[6] = Dox 3300 ng/mL, Supplementary Figure 5a
[7] = Dox 3300 ng/mL, Supplementary Figure 5b
[8] = Dox 3300 ng/mL, Supplementary Figure 5c
[9] = MRGPRX4 (2pg), Dox 3300ng/mL, Supplementary Figure 5b
[10] = MRGPRX4, Supplementary Figure 5d-g
[11] = Dox 13 ng/mL, Supplementary Figure 5a
[12] = Dox 13 ng/mL, Supplementary Figure 5c
[13] = Dox 40 ng/mL, Supplementary Figure 5a

T1 sequence (Q96LA9 whole entry): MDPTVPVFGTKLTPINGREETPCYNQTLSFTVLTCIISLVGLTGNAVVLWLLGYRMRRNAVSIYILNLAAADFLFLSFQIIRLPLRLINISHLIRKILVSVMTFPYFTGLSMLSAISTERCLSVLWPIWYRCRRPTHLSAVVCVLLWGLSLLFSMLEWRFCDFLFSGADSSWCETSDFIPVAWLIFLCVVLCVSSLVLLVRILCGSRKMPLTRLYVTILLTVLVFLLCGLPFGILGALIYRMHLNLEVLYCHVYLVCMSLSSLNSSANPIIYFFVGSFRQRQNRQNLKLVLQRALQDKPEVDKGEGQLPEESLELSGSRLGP

## CC(C)[C@H]1CC[C@H](C(=O)N[C@H](Cc2ccccc2)C(=O)O)CC1 [Nateglinide]
[1]
  activation at 100 µM: 17.6%
  activation at 20 µM: 8.95%
[2]
  activation at 100 µM: 58%
  activation at 20 µM: 33.6%
  activation at 4 µM: 7.47%
[3]
  activation at 100 µM: 97.1%
  activation at 20 µM: 83.3%
  activation at 4 µM: 46.5%
  activation at 0.8 µM: 19.7%
  activation at […]: 11.5%
  activation at 0.032 µM: 10.3%
[4]
  activation at 100 µM: 25.8%
  activation at 20 µM: 17.4%
  activation at 4 µM: 4.19%
[5]
  activation at 100 µM: 81.1%
  activation at 20 µM: 57.5%
  activation at 4 µM: 20.2%
  activation at 0.8 µM: 3.18%
[6]
  activation at 100 µM: 100%
  activation at 20 µM: 86.8%
  activation at 4 µM: 44%
  activation at 0.8 µM: 19.9%
  activation at […]: 11.6%
  activation at 0.032 µM: 10.9%
[7]
  activation at 100 µM: 32.5%
  activation at 20 µM: 23.5%
  activation at 4 µM: 8.69%
[8]
  activation at 100 µM: 100%
  activation at 20 µM: 74.7%
  activation at 4 µM: 32.8%
  activation at 0.8 µM: 10.1%
  activation at […]: 7.74%
  activation at 0.032 µM: 3.46%
[9]
  activation at 100 µM: 100%
  activation at 20 µM: 86.8%
  activation at 4 µM: 44%
  activation at 0.8 µM: 19.9%
  activation at […]: 11.6%
  activation at 0.032 µM: 10.9%
[10]
  activation at 100 µM: 100%
  activation at 20 µM: 96.1%
  activation at 4 µM: 56.6%
  activation at 0.8 µM: 23.8%
  activation at […]: 11.3%
  activation at 0.032 µM: 13.6%
MRGPRX4 no dox, Supplementary Figure 5d-g
  activation at 100 µM: 1.03%
No Dox, Supplementary Figure 5a
  activation at 100 µM: 17%
No Dox, Supplementary Figure 5c
  activation at 100 µM: 17%
[11]
  activation at 20 µM: 62.9%
  activation at 4 µM: 29.5%
  activation at 0.8 µM: 10.1%
  activation at […]: 5.08%
  activation at 0.032 µM: 4.57%
Dox 13 ng/mL, Supplementary Figure 5b
  activation at 20 µM: 6.04%
[12]
  activation at 20 µM: 25.4%
  activation at 4 µM: 4.86%
[13]
  activation at 20 µM: 71.8%
  activation at 4 µM: 32.9%
  activation at 0.8 µM: 12.5%
  activation at […]: 6.44%
  activation at 0.032 µM: 5.36%
Figure 4a bottom, MRGPRX4 alone (reference = 100), individual replicates
  efficacy: 100
Figure 4a bottom, MRGPRX4 alone (reference = 100), individual replicates, read-out: efficacy
  Emax: 100%
Figure 4a top, MRGPRX4 alone (no RAMP), individual replicates, read-out: potency (converted)
  EC50: 7.29 µM and 10.3 µM and 7.1 µM
Figure 4c-f, agonist 100µM, MRGPRX4 alone (reference = 100)
  response to agonist, MRGPRX4: 100
Log [agonist] (M) -4
  normalized IP1 accumulation: 81.552 and 83.6202
Log [agonist] (M) -4.69897
  normalized IP1 accumulation: 71.4189 and 62.4618
Log [agonist] (M) -5.39794
  normalized IP1 accumulation: 34.1012 and 34.3253
Log [agonist] (M) -6.09691
  normalized IP1 accumulation: 18.0339 and 19.9037
Log [agonist] (M) -6.79588
  normalized IP1 accumulation: 15.3353 and 14.0745
Log [agonist] (M) -7.49485
  normalized IP1 accumulation: 14.2615 and 16.0131
HEK-293T, MRGPRX4 (Fig. 1A), HEK293T, normalized to 100 μM nateglinide, read-out: IP1 Emax
  Emax: 103%
HEK-293T, MRGPRX4 (Fig. 1A), HEK293T, normalized to 100 μM nateglinide, read-out: IP1 span
  Emax: 87.6%
MRGPRX4 0.125 pg DNA/cell, individual experiments, read-out: efficacy (Figure 1b bottom)
  Emax: 77.3%
MRGPRX4 0.125 pg DNA/cell, individual experiments, read-out: potency (Figure 1b top) (converted)
  EC50: 15.9 µM and 12.3 µM and 12.6 µM
MRGPRX4 0.25 pg DNA/cell, individual experiments, read-out: efficacy (Figure 1b bottom)
  Emax: 81.4%
